Experimental data as given in publication PMC9019904, “AD Informer Set: Chemical tools to facilitate Alzheimer's disease drug discovery” (Alzheimer's & Dementia : Translational Research & Clinical …, 2022).
In brackets after ≈: the same amount, converted by molar mass.

Assays:
[1] = test system: cellular system; details: published cellular activity at 10 μM; cited from earlier work
[2] = test system: BV2 (mouse microglia) cell line; assay: pHrodo-myelin phagocytosis/cell viability high content imaging assay: phagocytosis signal; assay type: cell-based; details: 10 μM
Outline: (§1)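 Read by high content imaging: the phagocytosis signal plus viability, measured simultaneously, with three extracted measurements. Imaging was done roughly 22 hours after pHrodo-myelin was added.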

[3] = test system: HMC3 (human microglia) cell line; assay: as above; assay type: cell-based; details: 10 μM
Outline: as §1

[4] = Kinetic solubility in aqueous buffer pH 7.4 by total chemiluminescent nitrogen determination (Analiza); details: aqueous buffer, pH 7.4, aqueous buffer, kinetic from dmso stock
[5] = test system: BV2 (mouse microglia) cell line; assay: pHrodo-myelin phagocytosis/cell viability high content imaging assay: viability (cell count, nuclear area, nuclear intensity); details: 10 μM
Outline: (§2)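 BV2 mouse and HMC3 human microglia were treated with compounds at 10 μM for 48 h, with pHrodo-myelin present for the last 20 h. Viability was imaged as total cell count per well and mean nuclear intensity per cell. Values are means of duplicates, normalized to untreated wells as % control.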

[6] = test system: HMC3 (human microglia) cell line; assay: as above; details: 10 μM, HMC3
Outline: as §2

Row | solubility kinetic [4] | SMILES | Reported as cell active (<10 μM) [1] | also measured
1 | – | C[C@H](CCCC(C)(C)O)[C@H]1CC[C@H]2[C@@H]3CC=C4C[C@@H](O)CC[C@]4(C)[C@H]3CC[C@]12C [25-Hydroxycholesterol] | Y (Published data supports that the compound is active in a cellular system when dosed at 10 μM (Y/N)) | Inhibition of mouse microglial phagocytosis at 10 μM (<70% control) ([2]; BV2 cells): Y (The compound was found to inhibit phagocytosis (response threshold: <70% control) when murine immortalized microglial cells were dosed at 10 μM (Y: yes)); Inhibition of human microglial phagocytosis at 10 μM (<70% control) ([3]; HMC3 cells): Y (The compound was found to inhibit phagocytosis (response threshold: <70% control) when human immortalized microglial cells were dosed at 10 μM (Y: yes))
2 | 2.1 µM (≈ 1.35 µg/mL) | Cc1c(COc2cc(OCc3cccc(C#N)c3)c(CN3C[C@H](O)C[C@@H]3C(=O)O)cc2Cl)cccc1-c1ccc2c(c1)OCCO2 [BMS-1166] | Y (Published data supports that the compound is active in a cellular system when dosed at 10 μM (Y/N)) | –
3 | – | C=C(c1ccc(C(=O)O)cc1)c1cc2c(cc1C)C(C)(C)CCC2(C)C [Bexarotene] | Y (Published data supports that the compound is active in a cellular system when dosed at 10 μM (Y/N)) | –
4 | – | Cc1cc2c(cc1-c1cc(/C=C\C(=O)O)ccc1O)C(C)(C)CCC2(C)C [CD3254] | Y (Published data supports that the compound is active in a cellular system when dosed at 10 μM (Y/N)) | –
5 | 58.5 µM (≈ 21.6 µg/mL) | O=C1CCc2cc(OCCCCc3nnnn3C3CCCCC3)ccc2N1 [Cilostazol (OPC 13013)] | Y (Published data supports that the compound is active in a cellular system when dosed at 10 μM (Y/N)) | –
6 | – | Cl.N=C(CCl)NCCC[C@H](NC(=O)c1ccccc1)C(N)=O [Cl-amidine] | Y (Published data supports that the compound is active in a cellular system when dosed at 10 μM (Y/N)) | Inhibition of human microglial phagocytosis at 10 μM (<70% control) ([3]; HMC3 cells): Y (The compound was found to inhibit phagocytosis (response threshold: <70% control) when human immortalized microglial cells were dosed at 10 μM (Y: yes))
7 | – | CC(C)(C(=O)O)c1ccc(C(O)CCCN2CCC(C(O)(c3ccccc3)c3ccccc3)CC2)cc1 (centres unmarked) [Fexofenadine] | Y (Published data supports that the compound is active in a cellular system when dosed at 10 μM (Y/N)) | –
8 | 7.1 µM (≈ 3.51 µg/mL) | Cc1cc(C)nc(NS(=O)(=O)c2ccc(NC(=O)NC(=O)c3ccc(Cl)cc3Cl)cc2)n1 [LDN-193188] | Y (Published data supports that the compound is active in a cellular system when dosed at 10 μM (Y/N)) | –
9 | 92.8 µM (≈ 33.7 µg/mL) | Cc1cc2c(cc1C1(c3ccc(C(=O)O)cn3)CC1)C(C)(C)CCC2(C)C [LG 100268] | Y (Published data supports that the compound is active in a cellular system when dosed at 10 μM (Y/N)) | –
10 | – | Cc1cc2c(cc1C(=O)c1ccc(C(=O)O)cc1)C(C)(C)CCC2(C)C [LG-100064] | Y (Published data supports that the compound is active in a cellular system when dosed at 10 μM (Y/N)) | –
11 | – | CCCCCCCCCCCCCCCCOCC(COCC(F)(F)F)OP(=O)([O-])OC.[Li+] (centres unmarked) [MJ-33 (lithium salt)] | Y (Published data supports that the compound is active in a cellular system when dosed at 10 μM (Y/N)) | Inhibition of human microglial phagocytosis at 10 μM (<70% control) ([3]; HMC3 cells): Y (The compound was found to inhibit phagocytosis (response threshold: <70% control) when human immortalized microglial cells were dosed at 10 μM (Y: yes))
12 | – | C[C@@H]1O[C@@H](O[C@H]2[C@H](Oc3cc(O)c4c(c3)O[C@H](c3ccc(O)cc3)CC4=O)O[C@H](CO)[C@@H](O)[C@@H]2O)[C@H](O)[C@H](O)[C@H]1O [Naringin] | Y (Published data supports that the compound is active in a cellular system when dosed at 10 μM (Y/N)) | Stimulation of mouse microglial phagocytosis at 10 μM (>150% control) ([2]; BV2 cells): Y (The compound was found to stimulate phagocytosis (response threshold: >150% control) when murine immortalized microglial cells were dosed at 10 μM (Y: yes)); Inhibition of human microglial phagocytosis at 10 μM (<70% control) ([3]; HMC3 cells): Y (The compound was found to inhibit phagocytosis (response threshold: <70% control) when human immortalized microglial cells were dosed at 10 μM (Y: yes))
13 | 159 µM (≈ 75.6 µg/mL) | CC(=O)NCC(=O)N1[C@@H]2CC[C@H]1c1ccc(Nc3ncc(C(F)(F)F)c(NC4CCC4)n3)cc12 [PF-03814735 (MolPort-023-219-160)] | – | Mouse microglial cytotoxicity at 10 μM (<70% control) ([5]; BV2): Y (The compound was found to be cytotoxic (cell count threshold: <70% control) when murine immortalized microglial cells were dosed at 10 μM (Y: yes)); Human microglial cytotoxicity at 10 μM (<70% control) [6]: Y (The compound was found to be cytotoxic (cell count threshold: <70% control) when human immortalized microglial cells were dosed at 10 μM (Y: yes)); Inhibition of mouse microglial phagocytosis at 10 μM (<70% control) ([2]; BV2): Y (The compound was found to inhibit phagocytosis (response threshold: <70% control) when murine immortalized microglial cells were dosed at 10 μM (Y: yes)); Inhibition of human microglial phagocytosis at 10 μM (<70% control) ([3]; HMC3): Y (The compound was found to inhibit phagocytosis (response threshold: <70% control) when human immortalized microglial cells were dosed at 10 μM (Y: yes))
14 | 125 µM (≈ 96.4 µg/mL) | CN(C)CCCOc1c(Br)cc(/C=C/C(=O)NCCCOc2c(Br)cc(CCN(C)C)cc2Br)cc1Br [Psammaplysene A] | – | Mouse microglial cytotoxicity at 10 μM (<70% control) ([5]; BV2): Y (The compound was found to be cytotoxic (cell count threshold: <70% control) when murine immortalized microglial cells were dosed at 10 μM (Y: yes)); Human microglial cytotoxicity at 10 μM (<70% control) [6]: Y (The compound was found to be cytotoxic (cell count threshold: <70% control) when human immortalized microglial cells were dosed at 10 μM (Y: yes)); Inhibition of mouse microglial phagocytosis at 10 μM (<70% control) ([2]; BV2): Y (The compound was found to inhibit phagocytosis (response threshold: <70% control) when murine immortalized microglial cells were dosed at 10 μM (Y: yes)); Inhibition of human microglial phagocytosis at 10 μM (<70% control) ([3]; HMC3): Y (The compound was found to inhibit phagocytosis (response threshold: <70% control) when human immortalized microglial cells were dosed at 10 μM (Y: yes))
15 | 3.8 µM (≈ 1.68 µg/mL) | Cn1nccc1Nc1nccc(-c2ccn([C@H](CO)c3ccc(Cl)c(F)c3)c(=O)c2)n1 [Ravoxertinib (GDC0994)] | – | Mouse microglial cytotoxicity at 10 μM (<70% control) ([5]; BV2): Y (The compound was found to be cytotoxic (cell count threshold: <70% control) when murine immortalized microglial cells were dosed at 10 μM (Y: yes)); Human microglial cytotoxicity at 10 μM (<70% control) [6]: Y (The compound was found to be cytotoxic (cell count threshold: <70% control) when human immortalized microglial cells were dosed at 10 μM (Y: yes)); Inhibition of mouse microglial phagocytosis at 10 μM (<70% control) ([2]; BV2): Y (The compound was found to inhibit phagocytosis (response threshold: <70% control) when murine immortalized microglial cells were dosed at 10 μM (Y: yes)); Inhibition of human microglial phagocytosis at 10 μM (<70% control) ([3]; HMC3): Y (The compound was found to inhibit phagocytosis (response threshold: <70% control) when human immortalized microglial cells were dosed at 10 μM (Y: yes))
16 | – | C=CC[N+]1([C@H]2C[C@H]3[C@@H]4CC[C@H]5C[C@H](O)[C@@H](N6CCOCC6)C[C@]5(C)[C@H]4CC[C@]3(C)[C@H]2OC(C)=O)CCCC1 [Rocuronium Bromide] | Y (Published data supports that the compound is active in a cellular system when dosed at 10 μM (Y/N)) | Inhibition of human microglial phagocytosis at 10 μM (<70% control) ([3]; HMC3 cells): Y (The compound was found to inhibit phagocytosis (response threshold: <70% control) when human immortalized microglial cells were dosed at 10 μM (Y: yes))
17 | 57 µM (≈ 20.4 µg/mL) | CN(CCOc1ccc(CC2SC(=O)NC2=O)cc1)c1ccccn1 (centres unmarked) [Rosiglitazone] | Y (Published data supports that the compound is active in a cellular system when dosed at 10 μM (Y/N)) | –
18 | – | CC(=O)O[C@@H]1[C@@H](OC(C)=O)[C@@H](O)[C@H](Oc2c(-c3ccc(O)cc3)oc3cc(O)cc(O)c3c2=O)O[C@H]1C [SL0101] | Y (Published data supports that the compound is active in a cellular system when dosed at 10 μM (Y/N)) | Inhibition of human microglial phagocytosis at 10 μM (<70% control) ([3]; HMC3 cells): Y (The compound was found to inhibit phagocytosis (response threshold: <70% control) when human immortalized microglial cells were dosed at 10 μM (Y: yes))
19 | – | CCCCCOc1cc2c(cc1-c1cc(/C=C/C(=O)O)ccc1O)C(C)(C)CCC2(C)C [UVI 3003] | Y (Published data supports that the compound is active in a cellular system when dosed at 10 μM (Y/N)) | –
20 | – | CNC(=O)c1cccc(-c2ccc3c(N4CCOC[C@@H]4C)nc(N4CCOC[C@@H]4C)nc3n2)c1 [Vistusertib] | Y (Published data supports that the compound is active in a cellular system when dosed at 10 μM (Y/N)) | Mouse microglial cytotoxicity at 10 μM (<70% control) ([5]; BV2 cells, cell count <70% control): Y (The compound was found to be cytotoxic (cell count threshold: <70% control) when murine immortalized microglial cells were dosed at 10 μM (Y: yes)); Stimulation of mouse microglial phagocytosis at 10 μM (>150% control) ([2]; BV2 cells): Y (The compound was found to stimulate phagocytosis (response threshold: >150% control) when murine immortalized microglial cells were dosed at 10 μM (Y: yes))
21 | – | O=S(=O)(NC1CCNCC1)c1cc(S(=O)(=O)c2ccccc2)ccc1C(F)(F)F [WAY-316606] | Y (Published data supports that the compound is active in a cellular system when dosed at 10 μM (Y/N)) | Stimulation of mouse microglial phagocytosis at 10 μM (>150% control) ([2]; BV2 cells): Y (The compound was found to stimulate phagocytosis (response threshold: >150% control) when murine immortalized microglial cells were dosed at 10 μM (Y: yes))

Row | SMILES | solubility kinetic [4] | Reported as cell active (<10 μM) [1] | also measured
22 | COc1ccc(CCN2CCN(CCCc3ccccc3)CC2)cc1OC.Cl.Cl [Cutamesine (SA 4503)] | 108 µM | Y (Published data supports that the compound is active in a cellular system when dosed at 10 μM (Y/N)) | –
23 | CCc1ccc(CCOc2ccc(CC3SC(=O)NC3=O)cc2)nc1 (centres unmarked) [Pioglitazone] | 3.2 µM (≈ 1.14 µg/mL) | Y (Published data supports that the compound is active in a cellular system when dosed at 10 μM (Y/N)) | –
